Data on 39 compounds can be found in PubChem BioAssay (NCI).

“And” between values parts separate entries of the source, which are not always exact repeats. Equal entries are not always repeated.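 Results reflect a 48-hour exposure of cells in 96-well plates to compound at five concentrations. Here, GI50 denotes the concentration required for 50% inhibition of growth. TGI denotes the concentration required for complete inhibition of growth.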

One test has as its system KM20L2 colon. In words: growth of human tumour cells (NCI), 48 h.
Consider `COC1OC(C)C(OCc2ccccc2)C(OS(=O)(=O)c2ccc(C)cc2)C1OS(=O)(=O)c1ccc(C)cc1` (stereo not given), for which the TGI is greater than 100 µM.

`O=C1C2=C(c3ccccc31)C(c1ccccc1Cl)N1C(=O)CCSC1=N2` (stereo not given) returned a TGI greater than 100 µM.

As to `Cc1ccc2nc3c(Cl)c(C)c(=O)cc-3sc2c1`, the GI50 was greater than 100 µM and the TGI was greater than 100 µM.

Compound `O=C/C(=C(/Cl)c1ccc(O)cc1)c1ccccc1` showed a TGI greater than 59.8 µM.

In another test the test system is DMS 273 small cell lung. In words: growth of human tumour cells (NCI), 48 h.
Regarding `CC1(c2ccccc2)CC(c2ccccc2)=NO1` (stereo not given), the TGI is greater than 100 µM.

For the compound `COc1cccc(/C=C2\CCC(C)(CN(C)C)C2=O)c1` (stereo not given), the TGI was greater than 100 µM.

`Cl[Si]1(Cl)Oc2ccccc2O[Si](Cl)(Cl)Oc2ccccc2O1` gave a TGI of 31.3 µM.

Consider `C[n+]1c2ccccc2cc2c(CNC(CCCN=C(N)N)C(=O)O)cccc21` (stereo not given), for which the GI50 was 0.441 µM; the TGI is 8.77 µM and 1.53 µM.

`Cc1cc2c(Br)cc(Br)c(O)c2nc1C(=O)c1ccccc1` registered a TGI of 42.3 µM.

As for `CC(=O)[O-].CC(=O)[O-].CC(=O)[O-].CC(=O)[O-].[Mo+2].[Mo+2]`, the GI50 is greater than 100 µM and the TGI is greater than 100 µM.

`CC1(C)OC2COC3(CNO)OC(C)(C)OC3C2O1` (stereo not given) returned a TGI greater than 100 µM.

The compound `CCOC(=O)C(=O)Nc1ccccc1C(F)(F)F` returned a TGI greater than 100 µM.

`COc1ccc(Nc2nc3ccccc3nc2-c2cccs2)cc1` registered a TGI greater than 100 µM.

In the case of `Cc1ccccc1Nc1nc2c(s1)C(=O)c1ccccc1C2=O`, the TGI stood at 21.4 µM.

`Cc1nnc(N/N=C(/C(=O)C(C#N)c2ccccc2)C(C#N)c2ccccc2)n1N` (stereo not given) returned a TGI of 34.4 µM.

The compound `COc1c(Br)cc(Br)c(OC)c1-c1[nH]c(Br)c(Br)c1Br` displayed a TGI of 25.1 µM.

With `CCOC(=O)c1ccc(N[C@@H]2c3cc4c(cc3C(C3=CC(=O)C(=O)C(OC)=C3)[C@H]3C(=O)OCC32)OCO4)cc1` (stereo not given in full), the TGI stood at 13.5 µM.

The compound `CNC(SC)=C1C(=O)OC(C)(C)OC1=O` gave a TGI greater than 100 µM.

On to `CC(=O)NNc1nc(C)c(C(=O)NNC(=O)C(=O)Nc2nc3ccc([N+](=O)[O-])cc3s2)s1`, for which the TGI is greater than 100 µM.

`NC(=O)/C=C/C(=O)O` came in with a TGI greater than 5000 µM.

The compound `CC(CC(=O)Nc1ccc(NC(=O)CC(C)N=NC(N)=S)cc1)N=NC(N)=S` (stereo not given) yielded a TGI greater than 100 µM.

For the compound `COC(=O)/C(C#N)=C1\CCC(C(=O)OC)N1C` (stereo not given), the TGI is greater than 100 µM.

In turn, `C#CCC(N)(CO)C(=O)O` (stereo not given) had a TGI greater than 100 µM.

`CSc1c(C)c(C)nn1-c1ccccc1` registered a TGI greater than 100 µM.

In turn, `CC(=O)OC1COC(n2c(=S)n(-c3ccccc3)c(=O)c3cc(Br)ccc32)C(OC(C)=O)C1OC(C)=O` (stereo not given) showed a TGI greater than 100 µM.

As for `CC1=C(C(=O)Nc2ccccc2C)C(/C=C/c2ccccc2)C(C(=O)Nc2ccccc2C)=C(C)N1`, the TGI was greater than 100 µM.

Compound `Cc1cc(N(CCC#N)CCC#N)ccc1/C=C1N=C(/C=C/c2ccccc2)OC(=O)N\1` came in with a TGI greater than 100 µM.

Take `CC(=O)OCC1OC(n2cc([N+](=O)[O-])c(=O)[nH]c2=O)C(OC(C)=O)C(OC(C)=O)C1OC(C)=O` (stereo not given): the TGI was greater than 100 µM.

`Cc1cn(C2OC(C)(CO)C(O)C2O)c(=O)[nH]c1=O` (stereo not given) showed a TGI greater than 100 µM.

For the compound `O=C1C=C(O)c2[nH]c(=O)ccc2C1=O`, the TGI is greater than 100 µM.

On to `O=c1ncccn1C1C=C(CO)C(O)C1O` (stereo not given), for which the TGI is greater than 50 µM.

`CCN(CC)CC(=O)N1CCc2c([nH]c3ccccc23)C1c1cccnc1` (stereo not given) returned a TGI greater than 100 µM.

As for `O=c1c(Cl)c(Cl)cnn1CCc1ccncc1`, the TGI is 33.6 µM.

As for `CCCCCCCCCCCCCC(=O)OCC1OC(=O)CC1O` (stereo not given), the TGI was greater than 100 µM.

The compound `N=S(c1ccccc1)c1ccccc1[N+](=O)[O-]` (stereo not given) yielded a TGI of 34.4 µM.

`CC1(Cc2ccccc2)NC(=S)NC1=O` (stereo not given) gave a TGI greater than 100 µM.

Compound `Cc1ccc(S(=O)(=O)N/N=C(\c2nc3ccc([N+](=O)[O-])cc3[nH]c2=O)C(O)c2ccccc2Cl)cc1` (stereo not given) registered a TGI greater than 100 µM.

Turning to `COC1OC(C)C(OCc2ccccc2)C(OS(=O)(=O)c2ccc(C)cc2)C1OS(=O)(=O)c1ccc(C)cc1` (stereo not given), the TGI is greater than 100 µM.

As to `O=C1C2=C(c3ccccc31)C(c1ccccc1Cl)N1C(=O)CCSC1=N2` (stereo not given), the TGI was greater than 100 µM.

Compound `Cc1ccc2nc3c(Cl)c(C)c(=O)cc-3sc2c1` registered a TGI greater than 100 µM.

Turning to `O=C/C(=C(/Cl)c1ccc(O)cc1)c1ccccc1`, the TGI came to 48 µM.

The test system of a further test is T-47D breast. In words: growth of human tumour cells (NCI), 48 h.
The compound `Cc1cc2c(Br)cc(Br)c(O)c2nc1C(=O)c1ccccc1` gave a TGI of 74.6 µM.

In turn, `Cc1ccccc1Nc1nc2c(s1)C(=O)c1ccccc1C2=O` displayed a TGI of 27.5 µM.

`CC(=O)NNc1nc(C)c(C(=O)NNC(=O)C(=O)Nc2nc3ccc([N+](=O)[O-])cc3s2)s1` returned a TGI of 68.3 µM.

Another test has as its system MCF7 breast. In words: growth of human tumour cells (NCI), 48 h.
`Cc1cc2c(Br)cc(Br)c(O)c2nc1C(=O)c1ccccc1`: the TGI is greater than 100 µM.

In turn, `Cc1ccccc1Nc1nc2c(s1)C(=O)c1ccccc1C2=O` returned a TGI of 4.36 µM.

The compound `CC(=O)NNc1nc(C)c(C(=O)NNC(=O)C(=O)Nc2nc3ccc([N+](=O)[O-])cc3s2)s1` yielded a TGI greater than 100 µM.

A further test deals with M19-MEL melanoma. In words: growth of human tumour cells (NCI), 48 h.
In turn, `CC1(c2ccccc2)CC(c2ccccc2)=NO1` (stereo not given) showed a TGI greater than 100 µM.

`COc1cccc(/C=C2\CCC(C)(CN(C)C)C2=O)c1` (stereo not given): the TGI was greater than 100 µM.

Regarding `Cl[Si]1(Cl)Oc2ccccc2O[Si](Cl)(Cl)Oc2ccccc2O1`, the TGI came to 25.3 µM.

Turning to `C[n+]1c2ccccc2cc2c(CNC(CCCN=C(N)N)C(=O)O)cccc21` (stereo not given), the GI50 was 4.23 µM; the TGI was 2.26 µM and 17 µM.

For the compound `Cc1cc2c(Br)cc(Br)c(O)c2nc1C(=O)c1ccccc1`, the TGI is 32.2 µM.

`C=CCC1[C@@H](C(C)(C)C(C(C)=O)C(=O)C(=O)OC)OC(C(C)(C)C)N1C(=O)OC` (stereo not given in full) displayed a TGI greater than 100 µM.

`CC1(C)OC2COC3(CNO)OC(C)(C)OC3C2O1` (stereo not given) registered a TGI greater than 100 µM.

For the compound `Cc1ccccc1Nc1nc2c(s1)C(=O)c1ccccc1C2=O`, the TGI was determined as 3.79 µM.

Compound `Cc1nnc(N/N=C(/C(=O)C(C#N)c2ccccc2)C(C#N)c2ccccc2)n1N` (stereo not given) returned a TGI of 25.2 µM.

Compound `COc1c(Br)cc(Br)c(OC)c1-c1[nH]c(Br)c(Br)c1Br` displayed a TGI of 23 µM.

Consider `CCOC(=O)c1ccc(N[C@@H]2c3cc4c(cc3C(C3=CC(=O)C(=O)C(OC)=C3)[C@H]3C(=O)OCC32)OCO4)cc1` (stereo not given in full), for which the TGI was determined as 36.4 µM.

`CNC(SC)=C1C(=O)OC(C)(C)OC1=O` showed a TGI greater than 100 µM.

Take `CC(=O)NNc1nc(C)c(C(=O)NNC(=O)C(=O)Nc2nc3ccc([N+](=O)[O-])cc3s2)s1`: the TGI is greater than 100 µM.

In turn, `NC(=O)/C=C/C(=O)O` registered a TGI greater than 5000 µM.

As to `CC(CC(=O)Nc1ccc(NC(=O)CC(C)N=NC(N)=S)cc1)N=NC(N)=S` (stereo not given), the TGI is greater than 100 µM.

As to `COC(=O)/C(C#N)=C1\CCC(C(=O)OC)N1C` (stereo not given), the TGI is greater than 100 µM.

Consider `C#CCC(N)(CO)C(=O)O` (stereo not given), for which the TGI is greater than 100 µM.

Turning to `CC(=O)OC1COC(n2c(=S)n(-c3ccccc3)c(=O)c3cc(Br)ccc32)C(OC(C)=O)C1OC(C)=O` (stereo not given), the TGI was greater than 100 µM.

For the compound `CC1=C(C(=O)Nc2ccccc2C)C(/C=C/c2ccccc2)C(C(=O)Nc2ccccc2C)=C(C)N1`, the TGI was greater than 100 µM.

In the case of `CC(C)c1ccccc1NC(=O)/C(Cl)=C1/Sc2ccccc2NC1=O`, the TGI was greater than 100 µM.

Regarding `Cc1cc(N(CCC#N)CCC#N)ccc1/C=C1N=C(/C=C/c2ccccc2)OC(=O)N\1`, the TGI was greater than 100 µM.

In the case of `CC(=O)OCC1OC(n2cc([N+](=O)[O-])c(=O)[nH]c2=O)C(OC(C)=O)C(OC(C)=O)C1OC(C)=O` (stereo not given), the TGI was greater than 100 µM.

The compound `Cc1cn(C2OC(C)(CO)C(O)C2O)c(=O)[nH]c1=O` (stereo not given) showed a TGI greater than 100 µM.

Consider `O=C1C=C(O)c2[nH]c(=O)ccc2C1=O`, for which the TGI is greater than 100 µM.

The compound `CCN(CC)CC(=O)N1CCc2c([nH]c3ccccc23)C1c1cccnc1` (stereo not given) yielded a TGI greater than 100 µM.

For the compound `O=c1c(Cl)c(Cl)cnn1CCc1ccncc1`, the TGI was found to be 30.8 µM.

In turn, `N=S(c1ccccc1)c1ccccc1[N+](=O)[O-]` (stereo not given) had a TGI of 29.7 µM.

`CC1(Cc2ccccc2)NC(=S)NC1=O` (stereo not given) yielded a TGI greater than 100 µM.

As for `Cc1ccc(S(=O)(=O)N/N=C(\c2nc3ccc([N+](=O)[O-])cc3[nH]c2=O)C(O)c2ccccc2Cl)cc1` (stereo not given), the TGI is greater than 100 µM.

`COC1OC(C)C(OCc2ccccc2)C(OS(=O)(=O)c2ccc(C)cc2)C1OS(=O)(=O)c1ccc(C)cc1` (stereo not given) had a TGI greater than 100 µM.

`O=C1C2=C(c3ccccc31)C(c1ccccc1Cl)N1C(=O)CCSC1=N2` (stereo not given) showed a TGI greater than 100 µM.

In the case of `Cc1ccc2nc3c(Cl)c(C)c(=O)cc-3sc2c1`, the GI50 is 46.4 µM and the TGI is greater than 100 µM.

The compound `O=C/C(=C(/Cl)c1ccc(O)cc1)c1ccccc1` returned a TGI of 42.1 µM.
